The record followed here is PMC8400968, “Design, Synthesis, Biological Evaluation, and Computational Studies of Novel Tri-Aryl Imidazole-Benzene Sulfonamide Hybrids as Promising Selective Carbonic Anhydrase IX and XII Inhibitors” (Molecules, 2021).

Where two headings read alike, the source gives them in different places. Some results are limits rather than exact numbers.

Data set [1] concerns the target T1, hCA IX (Homo sapiens, UniProt Q16790).
T1 construct: made in house
The experiment in a line: stopped-flow CO2 hydrase assay, hCA IX. It counts as biochemical. The note with it: for Selectivity Ratio hCA XII/ hCA IX: selectivity for hCA IX over hCA XII; for Ki: stopped-flow CO2 hydrase assay; for fold lower inhibitory activity on hCA IX than the ortho-derivative: 5f vs 5e, 5h vs 5g; for IC50: quoted in docking discussion, read-out: IC50 CA-IX (in vitro inhibitory activity quoted in docking study). On the procedure: (§1) Newly synthesized hybrids 5a–n were tested for their inhibitory activity against four physiologically and pharmacologically CA isoforms, namely cytosolic hCA I and II, and tumor-associated isoforms hCA IX and XII, using a CO2 hydrase stop-flow assay. Acetazolamide (AAZ), clinically used sulphonamide, was used as the standard drug. […] The ability of imidazoles 5a–n toward inhibition of hCA I, II (cytosolic) as well as hCA IX and XII (transmembrane, tumor-associated isoforms) using stopped-flow CO2 hydrase assay was evaluated. See Appendix A.
(§2) The enzymes are recombinant proteins prepared in our lab. […] The uncatalyzed rates were determined in the same manner and subtracted from the total observed rates. Stock solutions of inhibitor (0.1 mM) were prepared in distilled-deionized water and dilutions up to 0.01 nM were done thereafter with the assay buffer. Inhibitor and enzyme solutions were preincubated together for 15 min at room temperature prior to assay, in order to allow for the formation of the E-I complex. The inhibition constants were obtained by non-linear least-squares methods using PRISM 3 and the Cheng-Prusoff equation, and represent the mean from at least three different determinations.

In data set [2] the target is T2, hCA II (Homo sapiens, UniProt P00918).
T2 construct: made in house
Briefly: stopped-flow CO2 hydrase assay, hCA II. The format is biochemical. On the procedure: as §1, §2

Data set [3] concerns the target T3, hCA XII (Homo sapiens, UniProt O43570).
T3 construct: made in house
Briefly: stopped-flow CO2 hydrase assay, hCA XII. The format is biochemical. On the procedure:
Newly synthesized hybrids 5a–n were tested for their inhibitory activity against four physiologically and pharmacologically CA isoforms, namely cytosolic hCA I and II, and tumor-associated isoforms hCA IX and XII, using a CO2 hydrase stop-flow assay. Acetazolamide (AAZ), clinically used sulphonamide, was used as the standard drug. […]. The ortho substitution in the aryl moiety appears to correlate with higher inhibitory effects against both hCA IX and XII. […] […]. The ability of imidazoles 5a–n toward inhibition of hCA I, II (cytosolic) as well as hCA IX and XII (transmembrane, tumor-associated isoforms) using stopped-flow CO2 hydrase assay was evaluated. See Appendix A.
The carbonic anhydrase catalyzed CO2 hydration actions for all new compounds herein reported have were assayed utilizing an instrument of Applied Photophysics stopped-flow. The enzymes are recombinant proteins prepared in our lab. […]. The uncatalyzed rates were determined in the same manner and subtracted from the total observed rates. Stock solutions of inhibitor (0.1 mM) were prepared in distilled-deionized water and dilutions up to 0.01 nM were done thereafter with the assay buffer. Inhibitor and enzyme solutions were preincubated together for 15 min at room temperature prior to assay, in order to allow for the formation of the E-I complex. The inhibition constants were obtained by non-linear least-squares methods using PRISM 3 and the Cheng-Prusoff equation, and represent the mean from at least three different determinations.

Data set [4] concerns the target T4, hCA I (Homo sapiens, UniProt P00915).
T4 construct: made in house
The experiment in a line: stopped-flow CO2 hydrase assay, hCA I. The format is biochemical. On the procedure:
as §1, §2

Data set [5] deals with epithelial cancer cell line (A-549). The experiment in a line: Antiproliferative activity, MTT assay, A-549. The note with it: Homo sapiens, A549; A-549, MTT; read-out: Antiproliferative Activity IC50 ± SEM A-549. It counts as cell-based. On the procedure:
(§3) The antiproliferative activity of 5b, 5d, 5e, 5g, 5j and 5n against four human cancer cell lines including pancreatic cancer cell line (Panc-1), breast cancer cell line (MCF-7), colon cancer cell line (HT-29) and epithelial cancer cell line (A-549) using MTT assay and doxorubicin was applied as the reference compound [22, 23]. Graph Pad Prism software (Graph Pad Software, San Diego, CA, USA) was used to calculate the median inhibition concentration (IC50) and results are recorded in Table 2.
(§4) The antiproliferative activity of 5b, 5d, 5e, 5g, 5j and 5n against four human cancer cell lines including pancreatic cancer cell line (Panc-1), breast cancer cell line (MCF-7), colon cancer cell line (HT-29) and epithelial cancer cell line (A-549) using MTT assay and doxorubicin was applied as the reference compound [22, 23]. See Appendix A.
(§5) To explore the antiproliferative potential of compounds MTT assay was performed according to previously reported procedure using different cell lines To explore the antiproliferative potential of compounds propidium iodide fluorescence assay was performed using different cell lines. To calculate the total nuclear DNA, a fluorescent dye (propidium iodide, PI) is used which can attach to the DNA, thus offering a quick and precise technique. PI cannot pass through the cell membrane and its signal intensity can be considered as directly proportional to quantity of cellular DNA. Cells whose cell membranes are damaged or have changed permeability are counted as dead ones. The assay was performed by seeding the cells of different cell lines at a density of 3000–7500 cells/well (in 200 µL medium) in culture plates followed by incubation for 24 h at 37 °C in humidified 5% CO2/95% air atmospheric conditions. The medium was removed; the compounds were added to the plates at 10 µM concentrations (in 0.1% DMSO) in triplicates, followed by incubation for 48 h. DMSO (0.1%) was used as control. After incubation, medium was removed followed by the addition of PI (25 µL, 50µg/mL in water/medium) to each well of the plates. At −80 °C, the plates were allowed to freeze for 24 h, followed by thawing at 25 °C. A fluorometer (Polar-Star BMG Tech, Offenburg, Germany) was used to record the readings at excitation and emission wavelengths of 530 and 620 nm for each well. The percentage cytotoxicity of compounds was calculated using the following formula: %Cytotoxicity=(Ac−Atc)/Ac×100 where Atc = Absorbance of treated cells and Ac = Absorbance of control. Erlotinib was used as positive control in the assay.
A general note: Formazan colour is commonly taken as a measure of viable cells.

In data set [6] the test system is breast cancer cell line (MCF-7). The experiment in a line: Antiproliferative activity, MTT assay, MCF-7. It counts as cell-based. The note with it: Homo sapiens, MCF7; MCF-7, MTT; read-out: Antiproliferative Activity IC50 ± SEM MCF-7. On the procedure: as §3, §4, §5
For data set [7], the system named is pancreatic cancer cell line (Panc-1). The experiment in a line: Antiproliferative activity, MTT assay, Panc-1. The format is cell-based. The note with it: Homo sapiens; Panc-1, MTT; read-out: Antiproliferative Activity IC50 ± SEM Panc-1. On the procedure:
as §3, §4, §5

Data set [8] relates to four human cancer cell lines (Panc-1, MCF-7, HT-29, A-549). Briefly: Antiproliferative activity, MTT assay, average of the four cell lines. The format is cell-based. On the procedure:
as §3, §4, §5

Data set [9] has as its system colon cancer cell line (HT-29). The experiment in a line: Antiproliferative activity, MTT assay, HT-29. It counts as cell-based. The note with it: Homo sapiens; HT-29, MTT; read-out: Antiproliferative Activity IC50 ± SEM HT-29. On the procedure:
as §3, §4, §5

T4 sequence (P00915 whole entry): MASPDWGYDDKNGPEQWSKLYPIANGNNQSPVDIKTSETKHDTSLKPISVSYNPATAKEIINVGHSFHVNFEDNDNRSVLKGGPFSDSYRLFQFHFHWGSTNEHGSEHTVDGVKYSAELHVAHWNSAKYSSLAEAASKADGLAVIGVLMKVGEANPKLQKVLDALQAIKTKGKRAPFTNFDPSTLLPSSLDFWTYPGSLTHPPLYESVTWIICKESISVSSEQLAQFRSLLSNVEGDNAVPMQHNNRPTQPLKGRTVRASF
T3 sequence (O43570 25-354): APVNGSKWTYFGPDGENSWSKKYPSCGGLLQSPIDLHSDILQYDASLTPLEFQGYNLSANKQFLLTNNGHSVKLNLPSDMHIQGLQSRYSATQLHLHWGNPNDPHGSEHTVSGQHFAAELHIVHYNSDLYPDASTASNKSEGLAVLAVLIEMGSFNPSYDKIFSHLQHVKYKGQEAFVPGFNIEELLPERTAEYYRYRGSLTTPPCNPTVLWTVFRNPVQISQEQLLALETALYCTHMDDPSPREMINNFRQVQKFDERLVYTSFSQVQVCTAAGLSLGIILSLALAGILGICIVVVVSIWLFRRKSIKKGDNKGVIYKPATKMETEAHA

Take `NS(=O)(=O)c1ccc(-n2c(-c3ccccc3)nc(-c3ccccc3)c2-c2ccccc2)cc1` [Compound 5a, 4-(2,4,5-Triphenyl-1H-imidazol-1-yl)benzene sulfonamide]: the melting point (in general, the temperature, or range, at which the solid turns liquid) was 210 to 212 °C. Further, in data set [1], the “Selectivity Ratio hCA XII/ hCA IX” value was 1.90 and the Ki (as a rule, the equilibrium dissociation constant of an inhibitor or competing ligand from its target) stood at 2.9 µM. In [2], the Ki is above 100 µM. The Ki in data set [3] amounted to 5.5 µM. For the same molecule, the Ki in data set [4] is above 100 µM.
In the case of `NS(=O)(=O)c1ccc(-n2c(-c3ccc(Cl)cc3)nc(-c3ccccc3)c2-c2ccccc2)cc1` [Compound 5c, 4-(2-(4-Chlorophenyl)-4,5-diphenyl-1H-imidazol-1-yl)benzene sulfonamide], the melting point is 230 to 232 °C. In addition, in [1], the “Selectivity Ratio hCA XII/ hCA IX” value is recorded as 0.45 and the Ki came out at 8.2 µM. The same molecule showed a Ki in data set [2] above 100 µM. In data set [3], the Ki was 3.7 µM. In [4], this molecule gave a Ki above 100 µM.
For `NS(=O)(=O)c1ccc(-n2c(-c3ccc(O)cc3)nc(-c3ccccc3)c2-c2ccccc2)cc1` [Compound 5f, 4-(2-(4-Hydroxyphenyl)-4,5-diphenyl-1H-imidazol-1-yl)benzene sulfonamide], the “fold lower inhibitory activity on hCA IX than the ortho-derivative” value in data set [1] is reported as 10 fold. Also, the “Selectivity Ratio hCA XII/ hCA IX” value in data set [1] worked out at 0.90. Also, the Ki in [1] was 8.4 µM; in [2] it was above 100 µM; in data set [3] it was 7.1 µM; in data set [4] it was above 100 µM.
`COc1ccc(-c2nc(-c3ccccc3)c(-c3ccccc3)n2-c2ccc(S(N)(=O)=O)cc2)cc1` [Compound 5h, 4-(2-(4-Methoxyphenyl)-4,5-diphenyl-1H-imidazol-1-yl)benzene sulfonamide] returned a melting point of 235 to 237 °C. Further, in data set [1], the “fold lower inhibitory activity on hCA IX than the ortho-derivative” value is on record as 22 fold, the “Selectivity Ratio hCA XII/ hCA IX” value was 0.50 and affinity was put at a Ki of 7.4 µM. In addition, in data set [2], the Ki is above 100 µM. In data set [3], this molecule yielded a Ki of 3.9 µM. In [4], the Ki is above 100 µM.
The molecule `COc1ccc(-c2nc(-c3ccccc3)c(-c3ccccc3)n2-c2ccc(S(N)(=O)=O)cc2)cc1OC` [Compound 5i, 4-(2-(3,4-Dimethoxyphenyl)-4,5-diphenyl-1H-imidazol-1-yl)benzene sulfonamide] returned a melting point of 260 to 262 °C. In data set [1], the IC50 (in general, the concentration that gives 50% inhibition) came out at 9.2 µM; the “Selectivity Ratio hCA XII/ hCA IX” value was 0.70; affinity was put at a Ki of 9.2 µM. This molecule yielded an inhibitory constant (Ki) in data set [2] above 100 µM. For the same molecule, the Ki in data set [3] is 6.6 µM. This molecule yielded a Ki in data set [4] above 100 µM.
In turn, `CN(C)c1ccc(-c2nc(-c3ccccc3)c(-c3ccccc3)n2-c2ccc(S(N)(=O)=O)cc2)cc1` [Compound 5k, 4-(2-(4-(Dimethylamino)phenyl)-4,5-diphenyl-1H-imidazol-1-yl)benzene sulfonamide] gave a melting point of 224 to 226 °C. In addition, in data set [1], the IC50 is 9.3 µM, the “Selectivity Ratio hCA XII/ hCA IX” value is 0.70 and the Ki was found to be 9.3 µM. Besides, the Ki in data set [2] was above 100 µM. Moreover, the Ki in [3] came to 6.8 µM. This molecule also returned a Ki in [4] above 100 µM.
Molecule `NS(=O)(=O)c1ccc(-n2c(-c3ccc(C(=O)O)cc3)nc(-c3ccccc3)c2-c2ccccc2)cc1` [Compound 5l, 4-(4,5-Diphenyl-1-(4-sulfamoylphenyl)-1H-imidazol-2-yl)benzoic acid] registered a melting point of 200 to 202 °C. Besides, in data set [1], the “Selectivity Ratio hCA XII/ hCA IX” value is on record as 0.80 and the inhibitory constant (Ki) stood at 8.5 µM. The Ki in [2] is above 100 µM. The molecule also had a Ki in data set [3] of 6.8 µM. This molecule gave a Ki in data set [4] above 100 µM.
The molecule `CCOC(=O)c1ccc(-c2nc(-c3ccccc3)c(-c3ccccc3)n2-c2ccc(S(N)(=O)=O)cc2)cc1` [Compound 5m, Ethyl 4-(4,5-diphenyl-1-(4-sulfamoylphenyl)-1H-imidazol-2-yl)benzoate] registered a melting point of 216 to 218 °C. Besides, in data set [1], the “Selectivity Ratio hCA XII/ hCA IX” value was found to be 0.70 and the affinity corresponds to a Ki of 8.8 µM. In data set [2], this molecule came in with a Ki above 100 µM. In data set [3], this molecule returned a Ki of 6.2 µM. In addition, the Ki in data set [4] (stopped-flow CO2 hydrase assay, read-out: Ki hCA I) was above 100 µM.
With `COc1cccc2c1C(=O)c1c(O)c3c(c(O)c1C2=O)C[C@@](O)(C(=O)CO)C[C@@H]3O[C@H]1C[C@H](N)[C@H](O)[C@H](C)O1` [Doxorubicin, reference compound], the IC50 in data set [5] came to 1.2 ± 0.8 µM; in [6] it was 0.9 ± 0.6 µM; in [7] it was 1.4 ± 0.6 µM; in [8] (average of A-549, MCF-7, Panc-1, HT-29), 1.1 µM; in [9], 1 ± 0.8 µM. The GI50 (as a rule, the concentration at which growth is held to half of that of the control) in data set [8] (four cancer cell lines, read-out: GI50) turned out to be 1.1 µM.
